Read-outs that look alike come from different tables or passages of the source.
Tests used:
[1] = Pharmacokinetics of methylated catechin derivatives in plasma; type: in vivo, BALB/c mice; details: BALB/c, mouse; for AUC(0-inf): read-out: AUC0-infinity (converted)
Experimental: Figure 4 Pharmacokinetics of methylated catechin derivatives and their effects on the PK of PTX. BALB/c mice were i.v. injected with 10 mg/kg or i.p. injected with 30 mg/kg of modulators. At 10, 30, 60, 180, 420, 840, and 1080 min postadministration, animals were sacrificed to collect their blood, and then the plasma concentration of modulator was determined using UPLC-MS/MS. The % of bioavailability of each modulator injected through i.p. injection route was calculated by comparing it to its plasma level when injected via i.v. injection. […] (E) Pharmacokinetic (PK) profiles of 4 potent methylated catechin derivatives were summarized. (F) The effect of modulators (GC51, EC31, or C25) on the PK of PTX was firstly determined through i.p. injection of modulator at 30 mg/kg 1 h prior to i.v. injection of 12 mg/kg PTX. At 10, 30, 60, 120, 240, and 420 min postadministration of PTX, animals were sacrificed. Plasma level of PTX was quantified through LC/MSMS. The dashed line indicates the corresponding EC50 of modulator in vitro for reversing PTX resistance. […] There were 3 mice at each time point. All pharmacokinetic parameters were calculated with the pharmacokinetic software Summit® PK solution. Two-tailed test was conducted for the AUC value of PTX alone and cotreatment. […] N.S. = not significant. / = not applicable.
In group 1, BALB/c mice were injected intravenously (i.v.) with 10 mg/kg of modulator, and their blood was collected at 10, 30, 60, 120, 240, and 480 min postadministration. In group 2, BALB/c mice were injected intraperitoneally (i.p.) with 30 mg/kg of modulator, and their blood was collected at 10, 30, 60, 180, 420, 840, and 1080 min postadministration.
The pharmacokinetics of PTX was studied with or without the coadministered modulator. PTX (12 mg/kg i.v.) alone was injected into the BALB/c mice. For the combination study, modulator (30 mg/kg i.p.) was injected 1 h before injecting PTX (12 mg/kg i.v.). The blood was collected at 10, 30, 60, 120, 240, and 420 min after PTX administration. Blood samples were spun at 14,000 rpm for 10 min at 4 °C to collect plasma supernatant. Plasma concentration of methylated catechin derivatives or PTX was determined through UPLC-QQQ-MS as described in Section 4.9. Pharmacokinetic parameters were analyzed with PK Solutions 2.0 (Summit Research Service, Ashland, OH, USA).

LCC6MDR xenograft = assay: In vivo PTX and EC31 accumulation in LCC6MDR tumor
Experimental: (A) In vivo toxicity study of EC31 alone and of its combination with PTX was conducted. BALB/c mice were randomized into five groups with five mice in each group. Body weight of BALB/c mice during treatments was measured every two days. The treatment groups included (1) solvent control (5% NMP + 5% Cremophor EL + 90% PBS to dissolve EC31 and 5% Ethanol + 5% Cremophor EL + 90% PBS to dissolve PTX), (2) PTX (12 mg/kg i.v.), (3) EC31 (30 mg/kg i.p.), (4) EC31 (30 mg/kg i.p.) + PTX (12 mg/kg i.v.), or (5) EC31 (60 mg/kg i.p.) + PTX (12 mg/kg i.v.). The administration was performed every other day 12 times (q2d x 12). The loss of body weight or appetite and treatment-related mortality were monitored and defined as toxicity. (B) BALB/c nude mice were subcutaneously xenografted with LCC6MDR. When the tumor reached 150–300 mm^3, the mice were randomized and administered once with (1) EC31 alone, (2) PTX alone, or (3) EC31 + PTX. […] The tumors were taken out, and their weights were measured. Intratumor concentration of EC31 or PTX was measured using UPLC-MS/MS, and the actual concentration of PTX or EC31 was normalized to the tumor weight. […] Tumor volume and body weight were monitored throughout the treatment period. […] The tumor volume, tumor weight, and doubling time were measured. The number of animal deaths was recorded during the treatment period. […]

K562/P-gp leukemia = assay: In vivo efficacy in reversing DOX resistance in human leukemia K562/P-gp model; design: species or system NOD/SCID mice
Experimental: Irradiated BDF1 mice were i.p. inoculated with P388ADR cells, which caused mouse leukemia. Irradiated NOD/SCID mice were i.v. inoculated with K562/P-gp cells, which caused human leukemia. The mice were randomized and treated with (1) control treatment (no treatment), (2) DOX alone, and (3) EC31 + DOX. Treatments were given as indicated by the arrows. The number of mice deaths in each treatment group was recorded every day. (A) The percent survival of mice infected with P388ADR. (B) The percent survival of mice infected with K562/P-gp. The mice median survival days and the increased lifespan (ILS) were analyzed with Log-rank (Mantel–COX) test in Prism 5.0. Student’s paired t test was conducted as indicated. ** represents p < 0.01, and *** represents p < 0.001. N.S. = not significant.
The mice were randomly distributed into 3 groups: (1) control group (no treatment), (2) DOX (0.9 mg/kg i.v.) alone, and (3) cotreatment with EC31 (30 mg/kg i.p.) being injected 1 h prior to DOX (0.9 mg/kg i.v.) administration. EC31 and DOX were injected on days 7, 11, 19, 23, and 27. Before each treatment, 0.2 mg/mL of DOX was freshly prepared using PBS. Mice survival and body weight were monitored during the study period.

[2] = EC31 30 mg/kg i.p. + DOX 0.9 mg/kg i.v.

COc1cc(OC)c2c(c1)O[C@H](c1ccc(OC)c(OC)c1)[C@H](OC(=O)c1ccc(F)c(NC(=O)c3cc(OC)c(OC)c(OC)c3)c1)C2 [EC31]
AUC(0-t) ([1]; ip, 30 mg/kg): 17800 ng·h/mL
Cmax ([1]; ip, 30 mg/kg): 5610 ng/mL
Tmax ([1]; ip, 30 mg/kg): 1 h
half-life ([1]; ip, 30 mg/kg): 3.33 h
AUC(0-inf) ([1]; ip, 30 mg/kg): 18400 ng·h/mL
AUC(0-t) ([1]; iv, 10 mg/kg): 7240 ng·h/mL
half-life ([1]; iv, 10 mg/kg): 0.912 h
AUC(0-inf) ([1]; iv, 10 mg/kg): 7290 ng·h/mL
increase of intratumor PTX level compared to PTX alone (LCC6MDR xenograft; EC31 30 mg/kg i.p. + PTX 12 mg/kg i.v., at 180 min): 6 fold
time intratumor EC31 is maintained above its in vitro EC50 (94 nM) (LCC6MDR xenograft; EC31 alone 30 mg/kg i.p., LCC6MDR xenograft): 420 min
median survival time (K562/P-gp leukemia; [2]): 37.0 days
prolongation of animal survival compared to DOX alone (K562/P-gp leukemia; [2]): 5 days
ILS% (increase in lifespan) (K562/P-gp leukemia; EC31 30 mg/kg i.p. + DOX 0.9 mg/kg i.v. compared to DOX alone): 15.6%

From paper PMC10002220, “In Vivo Reversal of P-Glycoprotein-Mediated Drug Resistance in a Breast Cancer Xenograft and in Leukemia Models Using a Novel, Potent, and Nontoxic Epicatechin EC31” (International Journal of Molecular Sciences, 2023)
